This note sets out measurements from ChEMBL document CHEMBL1201862, “PubChem BioAssay data set” (2004).

What all share (experiment): NCI-60 cell line screen, 48 h
For experiment [1], the system named is UACC-257.
The test system of experiment [2] is 786-0.
Experiment [3] deals with SF-268.
Experiment [4] relates to DU-145.
Experiment [5] concerns UACC-62.
Experiment [6] concerns COLO 205.
For experiment [7], the system named is OVCAR-8.
Experiment [8] deals with PC-3.
Experiment [9] deals with HT-29.
The subject of experiment [10] is IGROV-1.
The subject of experiment [11] is MDA-MB-435.
Experiment [12] deals with NCI-H460.
For experiment [13], the system named is SF-295.
Experiment [14] deals with HL-60.
Experiment [15] concerns MCF7.
Experiment [16] deals with A498.
Experiment [17] has as its system K562.
For experiment [18], the system named is MDA-N.
The test system of experiment [19] is LOX IMVI.
The test system of experiment [20] is SN12C.

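A five-concentration, 48-hour dose response in 96-well plates underlies each endpoint, interpolated linearly between surrounding concentrations. Here, GI50 denotes the concentration required for 50% inhibition of growth.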 The source made the active and inactive calls. Cut-off read from the data, not from the text of the source: active = GI50 up to about 1.1 µM and inactive = higher.

As for `O=C(c1ccccc1)c1c(C(F)(F)F)[n+]([O-])c2cc(F)c(F)cc2[n+]1[O-]`, the GI50 in [1] is 1.79 µM (inactive); in experiment [2] it was 0.525 µM (active); in [3], 1.32 µM (inactive); in experiment [4], 0.984 µM (active); in experiment [5], 2.22 µM (inactive); in experiment [6], 3.86 µM (inactive). For the same compound, the GI50 is 0.634 µM (active) in experiment [7]; 0.716 µM (active) in [8]; 0.586 µM (active) in [9]; 1.6 µM (inactive) in experiment [10]; 1.53 µM (inactive) in experiment [11]; 3.21 µM (inactive) in [12]. For the same compound, the GI50 in experiment [13] was 0.946 µM (active); in experiment [14], < 0.144 µM (active); in experiment [15] it was 0.349 µM (active); in experiment [16], 2.56 µM (inactive); in [17] it was 0.105 µM (active).
In the case of `Cn1c(S)nnc1-c1csc(-c2ccc(Cl)cc2)n1`, the GI50 in [1] is > 100 µM (inactive); in [2], 17 µM (inactive); in experiment [3], 29.3 µM (inactive); in experiment [5], 23.9 µM (inactive); in [6] it was > 100 µM (inactive); in experiment [7] it was 21.8 µM (inactive). Also, the GI50 in experiment [8] is 35.7 µM (inactive); in experiment [9], > 100 µM (inactive); in [18], 61 µM (inactive); in experiment [10], 16 µM (inactive); in experiment [11], > 100 µM (inactive); in [12], 21.3 µM (inactive). For the same compound, the GI50 was 15.6 µM (inactive) in experiment [13]; 21.7 µM (inactive) in [19]; 37.2 µM (inactive) in experiment [15]; 38.8 µM (inactive) in experiment [20]; > 100 µM (inactive) in experiment [17].
Consider `CCCCN(CCCC)C(=C(C(Cl)=C(Cl)Cl)[N+](=O)[O-])N(CCCC)CCCC`, for which the GI50 was 32.1 µM (inactive) in experiment [1]; > 100 µM (inactive) in [2]; > 100 µM (inactive) in [3]; > 100 µM (inactive) in experiment [4]; 87.3 µM (inactive) in [5]; > 100 µM (inactive) in experiment [6]. Moreover, the GI50 in experiment [8] was 57 µM (inactive); in experiment [18] it was > 100 µM (inactive); in experiment [11] it was > 100 µM (inactive); in [12], 89.5 µM (inactive); in [13], > 100 µM (inactive); in experiment [16], > 100 µM (inactive). The GI50 is > 100 µM (inactive) in experiment [20] and 0.0119 µM (active) in [17].
On to `COc1ccccc1C#C/C=C\C#Cc1ccccc1C#N`, for which the GI50 in experiment [1] is 5.2 µM (inactive); in experiment [2], 18.5 µM (inactive); in experiment [3], 19.4 µM (inactive); in experiment [4] it was 20 µM (inactive); in experiment [5] it was 23.7 µM (inactive); in experiment [6] it was 13.3 µM (inactive). Further, the GI50 in experiment [7] was 5.35 µM (inactive); in [8], 13.2 µM (inactive); in experiment [9], 6.28 µM (inactive); in [10], 10.4 µM (inactive); in experiment [11], 3.24 µM (inactive); in experiment [12] it was 13.3 µM (inactive). Moreover, the GI50 was 6.58 µM (inactive) in experiment [13]; 4.55 µM (inactive) in experiment [14]; 4.61 µM (inactive) in [15]; 26 µM (inactive) in [20]; 3.68 µM (inactive) in experiment [17].
As for `CCOC(=O)C(CC(C)C)NC(=O)C(N)Cc1ccc(N(CCCl)CCCl)cc1` (stereo not drawn), the GI50 is 10.3 µM (inactive) in experiment [1]; 1.69 µM (inactive) in experiment [2]; 3.56 µM (inactive) in [3]; 4.9 µM (inactive) in experiment [4]; 1.35 µM (inactive) in experiment [5]; 4.22 µM (inactive) in experiment [6]. The GI50 was 4.91 µM (inactive) in experiment [7]; 10.9 µM (inactive) in [8]; 2.13 µM (inactive) in experiment [9]; 12.6 µM (inactive) in experiment [18]; 13.7 µM (inactive) in experiment [10]; 16.9 µM (inactive) in [11]. The GI50 in experiment [12] was 0.0478 µM (active); in [13], 4.39 µM (inactive); in [14], 0.134 µM (active); in experiment [16], 13.9 µM (inactive); in experiment [20] it was 5.6 µM (inactive); in experiment [17] it was 1.58 µM (inactive).
Consider `c1cc2sc1CSCCSCCSC2`, for which the GI50 in experiment [1], in [2], in experiment [3], in [4], in experiment [5] and in experiment [6] was > 100 µM (inactive) throughout. For the same compound, the GI50 in experiment [7], in experiment [8], in experiment [9], in experiment [10], in [11] and in experiment [12] was > 100 µM (inactive) throughout. Further, the GI50 in experiment [13], in experiment [14], in experiment [19], in [15], in experiment [20] and in experiment [17] was > 100 µM (inactive) throughout.
For `Fc1cccc(C2SCc3nc4cc5ccccc5cc4n32)c1` (stereo not drawn), the GI50 in [1] is > 100 µM (inactive); in [2], 69.3 µM (inactive); in [3], > 100 µM (inactive); in [4], > 100 µM (inactive); in [5] it was > 100 µM (inactive); in [6], > 100 µM (inactive). Moreover, the GI50 in experiment [7], in experiment [8], in experiment [9], in experiment [18], in experiment [10] and in experiment [11] was > 100 µM (inactive) in each case. Also, the GI50 was > 100 µM (inactive) in [13]; > 100 µM (inactive) in experiment [19]; > 100 µM (inactive) in experiment [15]; 53.3 µM (inactive) in experiment [20]; > 100 µM (inactive) in experiment [17].
Regarding `O=C1OC(C(O)CO)C(C(O)CO)OC1=O` (stereo not drawn), the GI50 in experiment [1], in experiment [2], in experiment [3], in experiment [5], in experiment [6] and in [7] was > 10 µM (inactive) each time. The GI50 in [8], in experiment [9], in [10], in experiment [11], in experiment [12] and in [13] was > 10 µM (inactive) in each case. Also, the GI50 in [14], in experiment [15], in [16], in [20] and in [17] was > 10 µM (inactive) each time.
For `CCCCCCCCOP(=O)(O)OP(=O)(O)OCC1OC(n2ccc(N)nc2=O)C(O)C1O` (stereo not drawn), the GI50 in experiment [1], in experiment [2], in experiment [3], in [5], in [6] and in [7] was > 100 µM (inactive) in each case. For the same compound, the GI50 in experiment [8], in experiment [9], in experiment [18], in experiment [10], in experiment [11] and in experiment [12] was > 100 µM (inactive) throughout. Further, the GI50 in experiment [13], in [14], in experiment [19], in experiment [15], in experiment [16] and in [20] was > 100 µM (inactive) in each case. Also, the GI50 in experiment [17] is > 100 µM (inactive).
Take `CC1(C)C(O)C[C@]23CCC[C@](C)(C[C@@H](O)C12)C3` (stereo partly drawn): the GI50 is > 100 µM (inactive) in [1]; 32.9 µM (inactive) in experiment [2]; > 100 µM (inactive) in experiment [3]; > 100 µM (inactive) in experiment [5]; > 100 µM (inactive) in experiment [6]; > 100 µM (inactive) in [7]. The GI50 in experiment [8], in experiment [9], in experiment [10], in [11], in [12] and in [13] was > 100 µM (inactive) throughout. In addition, the GI50 in experiment [14], in experiment [19], in experiment [15], in experiment [20] and in experiment [17] was > 100 µM (inactive) throughout.
With `CCSc1nc(COC(=O)NC)c(COC(=O)NC)n1C`, the GI50 in experiment [1] is > 100 µM (inactive); in experiment [2], 99.5 µM (inactive); in experiment [3], 70.1 µM (inactive); in [5], 34.1 µM (inactive); in experiment [6], > 74.3 µM (inactive); in experiment [7] it was > 100 µM (inactive). Besides, the GI50 in experiment [8] is > 82 µM (inactive); in experiment [9] it was > 100 µM (inactive); in experiment [18], > 100 µM (inactive); in experiment [10], > 79.8 µM (inactive); in experiment [11], > 100 µM (inactive); in experiment [12], 73.1 µM (inactive). Further, the GI50 in [13] is > 100 µM (inactive); in experiment [14], 82.6 µM (inactive); in [19] it was > 97.1 µM (inactive); in experiment [15], > 70.5 µM (inactive); in [16], > 67.9 µM (inactive); in experiment [20] it was > 100 µM (inactive). Besides, in experiment [17], the GI50 is > 68.1 µM (inactive).
With `O=[N+]([O-])c1nccn1CC1OC(n2ccnc2[N+](=O)[O-])C(O)C(O)C1O` (stereo not drawn), the GI50 in experiment [1], in experiment [2], in experiment [5], in [6], in experiment [7] and in experiment [8] was > 100 µM (inactive) in each case. For the same compound, the GI50 in [9], in [18], in [12], in [14], in experiment [15] and in experiment [16] was > 100 µM (inactive) throughout. The GI50 in experiment [17] is > 100 µM (inactive).
